For this test, the target named is von Hippel-Lindau disease tumor suppressor (Homo sapiens, UniProt P40337). Description: VHL HEK-293 BRET Assay. As for the experimental part:
The VHL NanoBRET Target Engagement Assay analyzes the apparent affinity of test compounds for VHL in cells by competitive displacement of a VHL NanoBRET tracer reversibly bound to a NanoLuc VHL fusion protein stably expressed in the cells.[0488] Test compounds were transferred to the assay plate (384 Well White Non-Binding Corning Assay Plates (Corning-3574)) using an Echo 555 Liquid Handler (Labcyte) in 2.5 nL increments and, as appropriate, intermediate stock concentrations of compounds, in order to prepare a titration series.50 nL of control compound (10mM; parental unlabeled VHL antagonist; see structure below) and 50 nL of DMSO (negative control) were dispensed into the appropriate control wells. DMSO was backfilled to a final volume of 50 nL as required.50nl per well of 1 mM VHL NanoBRET Tracer in DMSO (NanoBRETTM Tracer-PEG2-590 (see structure below)) was transferred into each well using an Echo 555 (ultimately yielding a final concentration of 1uM). HEK 293 RT VHL-NanoLuc stable cells were cultured in DMEM High Glucose with Pyruvate, 10% fetal bovine serum, 2 mg/mL of Geneticin Selective Antibiotic (50 mg/ml) and 2 mM HEPES (1 M). Cells were seeded in Opti-MEM (Life Technologies-11058-021), 1.7 × 10^5 cells/mL, 40 ^l per well into the assay plate, centrifuged at 500 rpm for 30 seconds and incubated for 2 hours. Max Signal control wells consisted of DMSO only treated wells. Minimum Signal control wells contained of 10 uM parental unlabeled VHL antagonist (control compound see structure below). 3X Complete Substrate plus Inhibitor Solution was prepared in Opti-MEM (consists of a 1:166 dilution of NanoBRET Nano-Glo Substrate plus a 1:500 dilution of Extracellular NanoLuc Inhibitor in Opti-MEM), and 20 ul was dispensed into each well of the 384-well plate and centrifuged at 1000 rpm for 1 minute, then incubated for 2 minutes at room temperature. Background Signal control wells were prepared without tracer for background correction steps.[0489] Plates were read using a PerkinElmer Envision Reader (model 2104-0020) equipped with Luminescence option (Mirror: BRET2 Enh (PE Barcode 659), Emission Filter: Omega 610LP (Barcode 504), 2nd Emission Filter: Umbelliferone 460 (Barcode 207), Measurement height: 6.5 mm, Measurement time: 1s). The raw BRET ratio values were calculated by dividing the acceptor emission value (610 nm) by the donor emission value (460nm) for each sample. To correct for background, the BRET ratio in the absence of tracer (average of no-tracer control samples) was subtracted from the BRET ratio of each sample. Raw BRET units were converted to milliBRET units (mBU) by multiplying each raw BRET value by 1,000. The normalized NanoBRET signal was calculated relative to the Max Signal control wells (DMSO treated control wells) and the Minimum Signal control wells. Percentage inhibition was calculated relative to the Minimum Signal control and Maximum Signal control wells. IC50 values were derived by four parameter curve fitting using the Robust method.

Drawing on BindingDB's records for patent WO2022104345 (Genentech, 2022), this text covers IC50 for eight molecules.

von Hippel-Lindau disease tumor suppressor, sequence (P40337 whole entry, the tested form may be a part): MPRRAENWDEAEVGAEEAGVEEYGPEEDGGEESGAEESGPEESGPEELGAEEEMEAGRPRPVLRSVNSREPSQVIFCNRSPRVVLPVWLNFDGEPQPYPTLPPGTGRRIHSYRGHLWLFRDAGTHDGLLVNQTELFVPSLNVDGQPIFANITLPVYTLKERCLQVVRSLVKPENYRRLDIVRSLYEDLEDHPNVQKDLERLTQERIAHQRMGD

Regarding `CNC(=O)[C@@H]1C[C@@H](O)CN1C(=O)[C@H](C(C)C)n1cc(C2CC2)nn1` [WO2022104345, Compound 11], the IC50 was 3 µM.

The molecule `CNC(=O)[C@@H]1C[C@@H](O)CN1C(=O)[C@@H](C(C)C)n1cc(C2CC2)nn1` [WO2022104345, Compound 12] came in with an IC50 of over 100 µM.

`CNC(=O)[C@@H]1C[C@@H](OC(C)=O)CN1C(=O)[C@H](n1cc(C2CC2)nn1)C(C)(C)C` [WO2022104345, Compound 13] registered an IC50 of 62.8 µM.

Take `CNC(=O)[C@@H]1C[C@@H](O)CN1C(=O)[C@H](C(C)C)n1cc(C2(C)CC2)nn1` [WO2022104345, Compound 21]: inhibition was half-maximal at 1.21 µM (IC50).

`CNC(=O)[C@@H]1C[C@@H](O)CN1C(=O)C(=C(C)C)n1cc(C2CC2)nn1` [WO2022104345, Compound 32] came in with an IC50 of 4.75 µM.

As for `CNC(=O)[C@@H]1C[C@@H](O)CN1C(=O)[C@H](C(C)C)n1cc(-c2cncs2)nn1` [WO2022104345, Compound 41], 0.9 µM corresponded to half-maximal inhibition (IC50).

Molecule `CNC(=O)[C@@H]1C[C@@H](O)CN1C(=O)[C@H](C1CCNCC1)n1cc(C2CC2)nn1` [WO2022104345, Example S7] had an IC50 of over 100 µM.

In turn, `CNC(=O)[C@@H]1C[C@@H](O)CN1C(=O)[C@H](C1CCN(C)CC1)n1cc(C2CC2)nn1` [WO2022104345, Example S8] gave an IC50 of over 100 µM.
